Measurements from EP4800016A1, “METTL3 INHIBITOR” (Hangzhou Bangshun Pharmaceutical Co., Ltd., priority 2023, dated 2025).
pIC50: −log10 of the molar value.

Assays:
Kasumi-1 cells = experiment: Kasumi-1 cell inhibitory activity (CellTiter-Glo, 5 days); format: cell-based; conditions: Homo sapiens, 120 h, 5 days incubation, CellTiter-Glo luminescence
Protocol: Test compounds were dissolved in DMSO to prep are a 250×final concentration solution. The initial concentration was 10 µM with 3-fold dilution, resulting in a total of ten concentration points. 4 µL of the compound solution was added to 96 µL of cell culture medium to dilute it to 10×the final concentration. On the first day, Kasumi-1 cells (purchased from Precedo) were suspended in cell culture medium at the desired density, 90 µL of the cell suspension was added to a 96-well plate, and 10 µL of 10×compound solution was added for incubation, with a final DMSO concentration of 0.4% in each well. Incubated at 37 °C, 5% CO2 for 5 days. Before measurement after 5 days, the test plate was placed at room temperature, 50 µL of CellTiter-Glo® reagent (purchased from Promega, Cat. No. G7573) was added, mixed on a shaker for 2 minutes to lyse the cells, and incubated at room temperature for 10 minutes to stabilize the […] signal. Luminescence values were recorded using Paradigm, and the response-concentration curve was fitted with Graphpad Pr ism 8.0 to calculate IC50values. The results of each compound are shown in Table2, where A indicates <100nM, B indicates 100-1000nM, and C indicates >1000nM. [formula]

[1] = Rat pharmacokinetic test, intravenous injection; format: in vivo; conditions: male, SD, plasma, rats, 2 mg/kg, average of 3 rats
Protocol: 3.1 Experimental Animals: Male SD rats, weighing 190-230 g, 3 rats per compound 3.2 Experimental Design: All animals were fasted overnight (10-14 hours) the day before admin istration and fed 4 hours after admin istration. For intravenous injection, the drug vehicle was 5% DMA + 5% Solutol + 90% Saline (DMA: dimethylacetamide; Solutol: polyethyleneglycol-15-hydroxystearate; Saline: normal saline), with a dosage of 2 mg/kg and an admin istration concentration of 1 mg/mL. Blood samples were collected via the jugular vein at 5 min, 15 min, 30 min, 1 h, 2 h, 4 h, 6 h, 8 h, and 24 h after admin istration. Approximately 0.25 mL of each sample was collected, anticoagulated with EDTA-K2, placed on ice after collection, and centrifuged to separate plasma within 1 hour (6000 g, 3 min, 2-8°C). Plasma samples were stored in a - 80°Crefrigerator before analys is.
3.3 Result Analys is:Collected samples were detected using LC-MS/MS method. Pharmacokinetic parameters were calculated from blood drug concentration data at different time points using Phoenix WinNonlin 8.2.0 to obtain the average values of in vivo clearance (CL) and AUC0-t. Table 3 CL and AUC of test compounds after intravenous injection in rats

METTL3/14 = biological target: T1, METTL3/14 (Homo sapiens, UniProt Q86U44); experiment: METTL3/14 methyltransferase activity assay (HTRF); format: biochemical; conditions: 10 concentrations, 3-fold dilution from 10 µM
T1 construct: purchased active motif 31570
Protocol: The final initial concentration of the compound was 10 µM, with 3-fold serial dilution to give a total of 10 concentrations. 100 nL of the compound was transferred to a 384-well plate and centrifuged at 1000 RPM. 2.5 µL of METTL3/14 (active motif, Cat No. 31570) was added to the test wells and incubated at 25°C for 10 min. 2.5 µL of METTL3-Biotin & SAM (GenScript) was added to the test wells andincubated at 25°C for 60 min. 2.5 µL of YTHDF1 (active motif, Cat No. 31608) was added to the test wells and centrifuged at 1000 RPM. 2.5 µL of Streptavidin-Tb (Perkin Elmer Cat No. 61SATLB) & Flag-mede (Perkin Elmer Cat No. 61FG2DLA) was added to the test wells and centrifuged at 1000 RPM. Incubated at 25°C for 60 min. HTRF was measured using a Plate reader. The results of each compound are shown in Table 1, where A+indicates <10nM, A indicates 10-100nM, B indicates 100-1000nM, and C indicates >1000nM.

T1 sequence (Q86U44 whole entry): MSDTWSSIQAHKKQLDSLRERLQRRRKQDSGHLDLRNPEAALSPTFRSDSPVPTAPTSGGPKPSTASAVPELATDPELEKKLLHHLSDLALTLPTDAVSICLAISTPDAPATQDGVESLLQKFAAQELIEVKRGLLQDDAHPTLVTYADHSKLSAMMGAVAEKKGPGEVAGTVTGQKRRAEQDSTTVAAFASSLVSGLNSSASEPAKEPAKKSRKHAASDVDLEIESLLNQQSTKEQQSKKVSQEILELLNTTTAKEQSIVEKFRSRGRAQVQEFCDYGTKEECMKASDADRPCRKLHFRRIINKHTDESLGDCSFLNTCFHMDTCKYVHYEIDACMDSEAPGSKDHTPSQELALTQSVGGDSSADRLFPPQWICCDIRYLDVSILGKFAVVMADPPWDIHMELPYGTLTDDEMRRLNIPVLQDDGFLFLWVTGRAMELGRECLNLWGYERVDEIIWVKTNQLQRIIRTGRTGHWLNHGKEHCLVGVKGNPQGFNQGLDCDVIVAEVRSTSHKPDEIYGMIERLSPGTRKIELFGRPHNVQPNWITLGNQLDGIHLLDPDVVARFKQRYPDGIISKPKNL
T1 sequence (Q9HCE5 whole entry partner): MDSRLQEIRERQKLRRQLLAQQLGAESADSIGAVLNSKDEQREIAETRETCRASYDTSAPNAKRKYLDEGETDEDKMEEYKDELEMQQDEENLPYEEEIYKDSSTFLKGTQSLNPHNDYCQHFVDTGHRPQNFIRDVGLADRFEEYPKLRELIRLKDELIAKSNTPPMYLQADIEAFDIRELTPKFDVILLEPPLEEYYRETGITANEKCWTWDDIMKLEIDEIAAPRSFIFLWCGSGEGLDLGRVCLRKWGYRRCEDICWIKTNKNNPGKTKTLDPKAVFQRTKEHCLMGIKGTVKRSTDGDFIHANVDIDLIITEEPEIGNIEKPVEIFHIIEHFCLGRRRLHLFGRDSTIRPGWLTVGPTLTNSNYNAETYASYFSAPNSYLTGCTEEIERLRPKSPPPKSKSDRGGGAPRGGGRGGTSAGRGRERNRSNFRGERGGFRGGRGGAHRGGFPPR

Structure (SMILES)	AUC(0-t) [1]	clearance [1]	pIC50 (METTL3/14)	pIC50 (Kasumi-1 cells)
O=C(NCc1ccc2cc(CNCC3CC(F)(F)C3)[nH]c2c1)c1cc(=O)n2cc3c(cc2n1)OCCO3 [Example 24, N-((2-((((3,3-Difluorocyclobutyl)methyl)amino)methyl)-1H-indol-6-yl)methyl)-9-oxo-2,3-dihydro-9H-[1,4]dioxino[2',3':4,5]pyrido[1,2-a]pyrimidine-7-carboxamide]	2180 ng·h/mL	15.3 mL/min/kg	> 8.00	6.00 to 7.00
O=C(NCc1ccc2cc(CNC3CCC(F)(F)C3)[nH]c2c1)c1cc(=O)n2cc3c(cc2n1)OCO3 (stereo not shown) [Example 38, N-((2-(((3,3-Difluorocyclopentyl)amino)methyl)-1H-indol-6-yl)methyl)-8-oxo-8H-[1,3]dioxolo[4',5':4,5]pyrido[1,2-a]pyrimidine-6-carboxamide]	–	–	> 8.00	6.00 to 7.00
O=C(NCc1ccc2cc(CNCC34CC(F)(C3)C4)[nH]c2c1)c1cc(=O)n2cc3c(cc2n1)OCCO3 [Example 46, N-((2-((((3-Fluorobicyclo[1.1.1]pentan-1-yl)methyl)amino)methyl)-1H-indol-6-yl)methyl)-9-oxo-2,3-dihydro-9H-[1,4]dioxolo[2',3':4,5]pyrido[1,2-a]pyrimidine-7-carboxamide]	–	–	> 8.00	> 7.00
O=C(NCc1ccc2cc(CNCC3CC(F)(F)C3)[nH]c2c1)c1cc(=O)n2cc3c(cc2n1)OCO3 [Example 26, N-((2-((((3,3-Difluorocyclobutyl)methyl)amino)methyl)-1H-indol-6-yl)methyl)-8-oxo-8H-[1,3]dioxolo[4',5':4,5]pyrido[1,2-a]pyrimidine-6-carboxamide]	–	–	7.00 to 8.00	6.00 to 7.00
[2H]C([2H])(NCc1cc2ccc(CNC(=O)c3cc(=O)n4cc5c(cc4n3)OCO5)cc2[nH]1)C12CC(F)(C1)C2 [Example 72, N-((2-((((3-Fluorobicyclo[1.1.1]pentan-1-yl)methyl-d2)amino)methyl)-1H-indol-6-yl)methyl)-8-oxo-8H-[1,3]dioxolo[4',5':4,5]pyrido[1,2-a]pyrimidine-6-carboxamide]	–	–	> 8.00	> 7.00
O=C(NCc1cn2cc(CNCC3CCC3)ccc2n1)c1cc(=O)n2cc3c(cc2n1)OCO3 [Example 41, N-((6-(((cyclobutylmethyl)amino)methyl)imidazo[1,2-a]pyridin-2-yl)methyl)-8-oxo-8H-[1,3]dioxolo[4',5':4,5]pyrido[1,2-a]pyrimidine-6-carboxamide]	–	–	> 8.00	6.00 to 7.00
O=C(NCc1ccc2cc(CNCC3CCC3)[nH]c2c1)c1cc(=O)n2cc3c(cc2n1)OCCO3 [Example 20, N-((2-(((Cyclobutylmethyl)amino)methyl)-1H-indol-6-yl)methyl)-9-oxo-2,3-dihydro-9H-[1,4]dioxolo[2',3':4,5]pyrido[1,2-a]pyrimidine-7-carboxamide]	–	–	7.00 to 8.00	6.00 to 7.00
O=C(NCc1ccc2cc(CNCC3CCC3)[nH]c2c1)c1cc(=O)n2cc3c(cc2n1)OCO3 [Example 25, N-((2-(((Cyclobutylmethyl)amino)methyl)-1H-indol-6-yl)methyl)-8-oxo-8H-[1,3]dioxolo[4',5':4,5]pyrido[1,2-a]pyrimidine-6-carboxamide]	1460 ng·h/mL	22.7 mL/min/kg	> 8.00	6.00 to 7.00

More lines, main results first:

AUC(0-t) [1]	clearance [1]	pIC50 (METTL3/14)	Structure (SMILES)	pIC50 (Kasumi-1 cells)
1210 ng·h/mL	28.1 mL/min/kg	> 8.00	[2H]C([2H])(NCc1cc2cc(F)c(CNC(=O)c3cc(=O)n4cc5c(cc4n3)OCO5)cc2[nH]1)C12CC(F)(C1)C2 [Example 89, N-((5-Fluoro-2-((((3-fluorobicyclo[1.1.1]pentan-1-yl)methyl-d2)amino)methyl)-1H-indol-6-yl)methyl)-8-oxo-8H-[1,3]dioxolo[2',3':4,5]pyrido[1,2-a]pyrimidine-6-carboxamide]	> 7.00
1120 ng·h/mL	28.5 mL/min/kg	> 8.00	[2H]C([2H])(NCc1cc2cc(F)c(CNC(=O)c3cc(=O)n4cc5c(cc4n3)OCCO5)cc2[nH]1)C12CC(F)(C1)C2 [Example 94, N-((5-fluoro-2-((((3-fluorobicyclo[1.1.1]pentan-1-yl)methyl-d2)amino)methyl)-1H-indol-6-yl)methyl)-9-oxo-2,3-dihydro-9H-[1,4]dioxino[2',3':4,5]pyrido[1,2-a]pyrimidine-7-carboxamide]	> 7.00
1710 ng·h/mL	19.1 mL/min/kg	> 8.00	[2H]C([2H])(NCc1cc2cc(F)c(CNC(=O)c3cc(=O)n4cc5c(cc4n3)OCO5)cc2[nH]1)C1CCC1 [Example 88, N-((2-(((Cyclobutylmethyl-d2)amino)methyl)-5-fluoro-1H-indol-6-yl)methyl)-8-oxo-8H-[1,3]dioxolo[2',3':4,5]pyrido[1,2-a]pyrimidine-6-carboxamide]	> 7.00
–	–	7.00 to 8.00	[2H]C([2H])(NCc1cc2ccc(CNC(=O)c3cc(=O)n4cc5c(cc4n3)OCCO5)cc2[nH]1)C12CC(CO1)C2 [Example 91, N-((2-((((2-Oxabicyclo[2.1.1]hexan-1-yl)methyl-d2)amino)methyl)-1H-indol-6-yl)methyl)-9-oxo-2,3-dihydro-9H-[1,4]dioxino[2',3':4,5]pyrido[1,2-a]pyrimidine-7-carboxamide]	6.00 to 7.00
–	–	7.00 to 8.00	O=C(NCc1cc2[nH]c(CNCC34CC(CO3)C4)cc2cc1F)c1cc(=O)n2cc3c(cc2n1)OCO3 [Example 87, N-((2-((((2-Oxabicyclo[2.1.1]hexan-1-yl)methyl)amino)methyl)-5-fluoro-1H-indol-6-yl)methyl)-8-oxo-8H-[1,3]dioxolo[2',3':4,5]pyrido[1,2-a]pyrimidine-6-carboxamide]	6.00 to 7.00
1440 ng·h/mL	23 mL/min/kg	> 8.00	O=C(NCc1cc2[nH]c(CNCC3CCC3)cc2cc1F)c1cc(=O)n2cc3c(cc2n1)OCO3 [Example 73, N-((2-(((Cyclobutylmethyl)amino)methyl)-5-fluoro-1H-indol-6-yl)methyl)-8-oxo-8H-[1,3]dioxolo[4',5':4,5]pyrido[1,2-a]pyrimidine-6-carboxamide]	6.00 to 7.00
–	–	> 8.00	O=C(NCc1ccc2cc(CNCC34CC(CO3)C4)[nH]c2c1)c1cc(=O)n2cc3c(cc2n1)OCO3 [Example 84, N-((2-((((2-Oxabicyclo[2.1.1]hexan-1-yl)methyl)amino)methyl)-1H-indol-6-yl)methyl)-8-oxo-8H-[1,3]dioxolo[2',3':4,5]pyrido[1,2-a]pyrimidine-6-carboxamide]	6.00 to 7.00
–	–	> 8.00	O=C(NCc1ccc2cc(CNCC34CC(CO3)C4)[nH]c2c1)c1cc(=O)n2cc3c(cc2n1)OCCO3 [Example 77, N-((2-((((2-oxabicyclo[2.1.1]hexan-1-yl)methyl)amino)methyl)-1H-indol-6-yl)methyl)-9-oxo-2,3-dihydro-9H-[1,4]dioxino[2',3':4,5]pyrido[1,2-a]pyrimidin-7-carboxamide]	6.00 to 7.00
–	–	> 8.00	[2H]C([2H])(NCc1cc2cc(F)c(CNC(=O)c3cc(=O)n4cc5c(cc4n3)OCCO5)cc2[nH]1)C1CCC1 [Example 90, N-((2-(((Cyclobutylmethyl-d2)amino)methyl)-5-fluoro-1H-indol-6-yl)methyl)-9-oxo-2,3-dihydro-9H-[1,4]dioxino[2',3':4,5]pyrido[1,2-a]pyrimidine-7-carboxamide]	> 7.00
